In patent publication US4181657A, “2-Aminooctahydroindolo[2,3-a]quinolizines useful in treating cardiovascular disorders” (Miles Laboratories, Inc., priority 1978, dated 1980):
Counter-ions that a name gives are not always drawn.

Legend:
Format in all cases: in vivo
Systolic Blood Pressure = assay: Antihypertensive activity: indirect systolic blood pressure in renal hypertensive rats; conditions: rat, 31 mg/kg p.o., * in table = statistically significant change from control
Method: Rats were made hypertensive by applying a figure of eight ligature to one kidney and removing the contralateral kidney two weeks later. At least four weeks after the second operation the animals were subjected to indirect systolic blood pressure measurements with an occluding cuff and pulse sensor system applied to the tail. Pressure measurements were made before and 1,2,4,6 and 8 hours after oral administration of the test compounds at a dose of 31 mg/kg. Each compound was tested in 5 or 10 rats. Statistical significance of differences between control and post treatment values was determined by Wilcoxon's signed rank test (F. Wilcoxon and R. A. Wilcox, Some Rapid Approximate Statistical Procedures, Lederle Laboratories, Pearl River, 1964).

dog heart in situ = assay: Antianginal activity: aortic-coronary sinus difference in oxygen (myocardial oxygen consumption) in anesthetized dogs; conditions: 1 mg/kg i.v.; for antianginal activity (conclusion in words): based upon comparison with nitroglycerin, named compounds 'particularly'
Method: Angina pectoris is a clinical condition of hypoxia that results from an imbalance in myocardial oxygen supply and demand. A drug reducing oxygen demand is useful in the treatment of angina pectoris, as has been the case with nitroglycerin and the beta-adrenergic blocking agents like propranolol (J. R. Paratt, Advan. Drug Res. 9:103-134, 1974). Accordingly,the antianginal activity of 2-substituted indoloquinolizines was evaluated by assessing their capacity to reduce oxygen consumption by the dog heart in situ. This method allows measurement of the difference in oxygen content of the arterial and venous blood.
Mongrel dogs were anesthetized with pentobarbital and cannulas inserted in the trachea and in a femoral vein for artificial respiration with room air and for injection of test compounds, respectively. Heparin was administered intravenously to prevent blood clotting. The chest was opened at the sternal midline and an additional cannula introduced in the coronary sinus. Samples of blood were obtained from the coronary sinus cannula and from the thoracic aorta by direct puncture of the vessel. Partial pressure of oxygen in the samples was determined with a blood gas analyzer. Test compounds were injected intravenously at a dose of 1 mg/kg; oxygen measurements were made before administration and at 1, 5, 10, 20, 30, 40, 50 and 60 min after administration. One animal was used per test compound. As the standard of comparison, nitroglycerin was administered to a test animal and measurements were made in a similar manner.
Differences between partial pressure values in arterial and venous blood samples were calculated for each measurement. Since coronary sinus blood is representative of the venous effluent from the heart, these differences reflect the consumption of oxygen by the myocardium. Thus, the decrease in arteriovenous oxygen difference produced by the compounds by this invention indicates a reduction in myocardial oxygen consumption.

[1] = system: ventricular arrhythmia produced by chloroform; assay: Antiarrhythmic activity: protection from chloroform-induced ventricular arrhythmia in mice (Lawson model); conditions: mouse; for ED50: ip, 10 min, i.p., 10 min before chloroform, 95% confidence limits in parentheses, read-out: ED50 (95% C.L.); for mice protected of 5 / Antiarrhythmic activity, ED50 symbol (failed screening dose): 31 mg/kg i.p.; for Antiarrhythmic activity, ED50 symbol (failed screening dose): groups of 5 mice
Method: The antiarrhythmic activity of the compounds of this invention was determined in the experimental model described by J. W. Lawson (J. Pharmacol. Exper. Therap. 160:22-31, 1968). Test compounds were administered to groups of 5 mice at an intraperitoneal dose of 31 mg/kg. Ten minutes after injection each mouse was placed in a covered 300 ml glass beaker which contained cotton saturated with chloroform. The animal was observed closely and removed from the beaker immediately after respiratory arrest. The heart was quickly exposed by making an incision through the abdomen, diaphragm, thorax and pericardium for visual inspection of ventricular rate and rhythm. Ventricular contractions were counted for 30 seconds and animals with a rate not exceeding 100 beats per 30 seconds were considered protected from the ventricular arrhythmia produced by chloroform. Compounds protecting at least 3 of the 5 mice were subsequently tested at various doses and the results obtained were used to calculate the mean effective doses (ED50) and 95% confidence limits after the method of Litchfield and Wilcoxon (J. Pharmacol. Exper. Therap. 96:99-113, 1949). Table A presents the results obtained in the antiarrhythmic study.

Row | Structure (SMILES) | Change in Systolic Blood Pressure at 1 hr (Systolic Blood Pressure) | Change in Systolic Blood Pressure at 2 hr (Systolic Blood Pressure) [mmHg] | Change in Systolic Blood Pressure at 4 hr (Systolic Blood Pressure) [mmHg] | Change in Systolic Blood Pressure at 6 hr (Systolic Blood Pressure) | Change in Systolic Blood Pressure at 8 hr (Systolic Blood Pressure) | Arterio-Venous Difference in Oxygen Partial Pressure at 1 min (dog heart in situ) [mmHg] | Arterio-Venous Difference in Oxygen Partial Pressure at 5 min (dog heart in situ) [mmHg] | Arterio-Venous Difference in Oxygen Partial Pressure at 10 min (dog heart in situ) [mmHg] | Arterio-Venous Difference in Oxygen Partial Pressure at 20 min (dog heart in situ) [mmHg] | Arterio-Venous Difference in Oxygen Partial Pressure at 30 min (dog heart in situ) [mmHg] | Arterio-Venous Difference in Oxygen Partial Pressure at 40 min (dog heart in situ) [mmHg] | Arterio-Venous Difference in Oxygen Partial Pressure at 50 min (dog heart in situ) [mmHg] | Arterio-Venous Difference in Oxygen Partial Pressure at 60 min (dog heart in situ) [mmHg] | antianginal activity (conclusion in words) (dog heart in situ) | ED50 [1] [mg/kg] | mice protected of 5 [1] | Antiarrhythmic activity, ED50 symbol (failed screening dose) [1]
1 | Brc1cccc(NC2CCN3CCc4c(n(Cc5ccccc5)c5ccccc45)C3C2)c1.Cl (stereo not drawn) [TR3014, 12-benzyl-2-(3-bromoanilino)-1,2,3,4,6,7,12,12b-octahydroindolo[2,3-a]quinolizine hydrochloride] | +1 mmHg | -16 | -2 | 0 mmHg | -3 mmHg | 17 | 18 | 26 | 25 | 26 | 26 | 26 | 24 | antianginal activity is seen | 32 | at least 3 of 5 mice | 
2 | CC(=O)Nc1cccc(NC2CCN3CCc4c(n(Cc5ccccc5)c5ccccc45)C3C2)c1.O=C(O)C(=O)O (stereo not drawn) [TR3716, 2-(3-acetamidoanilino)-12-benzyl-1,2,3,4,6,7,12,12b-octahydroindolo[2,3-a]quinolizine oxalate] | -49 mmHg | -42 |  | -17 mmHg | -6 mmHg | 22 | 27 | 29 | 28 | 27 | 28 | 28 | 28 |  |  |  | * (Did not protect 3 of 5 mice and thus was not tested further.)
3 | NS(=O)(=O)c1ccc(NC2CCN3CCc4c(n(Cc5ccccc5)c5ccccc45)C3C2)cc1 (stereo not drawn) [TR3718, 12-benzyl-1,2,3,4,6,7,12,12b-octahydro-(4-sulfonamidoanilino)-indolo[2,3-a]quinolizine hydrochloride] | -5 mmHg | -16 | -21 | -5 mmHg | +5 mmHg | 20 | 17 | 17 | 16 | 16 | 16 | 18 | 18 |  |  |  | * (Did not protect 3 of 5 mice and thus was not tested further.)
4 | CC(=O)Nc1ccc(NC2CCN3CCc4c(n(Cc5ccccc5)c5ccccc45)C3C2)cc1.Cl.Cl (stereo not drawn) [TR3635, 2-(4-acetamidoanilino)-12-benzyl-1,2,3,4,6,7,12,12b-octahydroindolo-[2,3-a]quinolizine dihydrochloride] | -23 mmHg | -23 | -27 | -16 mmHg | -10 mmHg | 24 | 24 | 24 | 23 | 24 | 26 | 25 | 26 |  |  |  | * (Did not protect 3 of 5 mice and thus was not tested further.)
5 | Cl.Cl.NC1CCN2CCc3c(n(Cc4ccccc4)c4ccccc34)C2C1.O (stereo not drawn) [TR3698, 2-amino-12-benzyl-1,2,3,4,6,7,12,12b-octahydroindolo [2,3-a]-quinolizine dihydrochloride monohydrate] | -4 mmHg | -11 | -3 | +14 mmHg | +3 mmHg | 27 | 27 | 27 | 28 | 28 | 29 | 28 | 27 |  | 42 | at least 3 of 5 mice | 
6 | COc1ccc(NC2CCN3CCc4c(n(Cc5ccccc5)c5ccccc45)C3C2)cc1.Cl.Cl (stereo not drawn) [TR3006, 12-benzyl-2-(4-methoxyanilino)-1,2,3,4,6,7,12,12b-octahydroindolo[2,3-a]quinolizine dihydrochloride] | -28 mmHg | -20 | -18 | -12 mmHg | -14 mmHg | 30 | 44 | 45 | 42 | 37 | 38 | 36 | 36 | antianginal activity is seen |  |  | * (Did not protect 3 of 5 mice and thus was not tested further.)
